Measurements from ChEMBL document CHEMBL4706484, “Apigenin-rivastigmine hybrids as multi-target-directed liagnds for the treatment of Alzheimer's disease” (Eur J Med Chem, 2020).
Activity calls are given as the source filed them. The rule behind the calls is not given here.

Experiments:
[1] = Antioxidant activity of compound assessed as trolox equivalent antioxidant capacity by ORAC-FL assay; assay type: functional
[2] = biological target: Butyrylcholinesterase (Rattus norvegicus, UniProt Q9JKC1); experiment: Inhibition of rat serum BChE using acetylthiocholine iodide as substrate measured after 15 mins by Ellman's method; assay type: cell-free
[3] = biological target: T1, Acetylcholinesterase (Rattus norvegicus, UniProt P37136); experiment: Inhibition of rat cortex AChE using acetylthiocholine iodide as substrate measured after 15 mins by Ellman's method; assay type: tissue-based
T1 sequence (P37136 whole entry): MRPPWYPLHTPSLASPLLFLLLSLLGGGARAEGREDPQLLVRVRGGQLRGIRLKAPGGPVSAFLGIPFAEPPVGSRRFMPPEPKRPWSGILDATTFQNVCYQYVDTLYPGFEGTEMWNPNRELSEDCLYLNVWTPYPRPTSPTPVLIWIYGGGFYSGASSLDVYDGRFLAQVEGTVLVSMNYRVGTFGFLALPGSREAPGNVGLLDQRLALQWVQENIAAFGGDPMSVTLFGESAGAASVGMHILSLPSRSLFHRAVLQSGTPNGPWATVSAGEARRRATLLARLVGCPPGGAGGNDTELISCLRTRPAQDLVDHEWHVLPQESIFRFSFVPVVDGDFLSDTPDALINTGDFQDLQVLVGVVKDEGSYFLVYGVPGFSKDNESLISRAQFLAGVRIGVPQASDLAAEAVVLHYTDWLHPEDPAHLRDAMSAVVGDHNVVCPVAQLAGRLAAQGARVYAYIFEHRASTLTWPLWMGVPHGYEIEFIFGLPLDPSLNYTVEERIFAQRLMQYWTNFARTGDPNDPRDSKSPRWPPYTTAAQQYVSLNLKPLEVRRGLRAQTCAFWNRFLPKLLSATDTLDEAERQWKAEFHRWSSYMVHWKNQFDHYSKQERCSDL

[4] = biological target: Amyloid-beta precursor protein (Homo sapiens) (UniProt P05067); experiment: Inhibition of self-induced amyloid beta (1 to 42) (unknown origin) aggregation at 25 uM by ThT fluorescence assay relative to control
[5] = biological target: T2, Cholinesterase (Homo sapiens, UniProt P06276); experiment: Inhibition of human serum BChE using acetylthiocholine iodide as substrate measured after 15 mins by Ellman's method; assay type: cell-free
[6] = biological target: T3, Acetylcholinesterase (Homo sapiens, UniProt P22303); experiment: Inhibition of human erythrocytes AChE using acetylthiocholine iodide as substrate measured after 15 mins by Ellman's method; assay type: tissue-based, Erythrocyte
[7] = tested on: PC-12; experiment: Neuroprotective activity against H2O2-induced cell injury in rat PC12 cells assessed as cell viability preincubated for 2 hrs followed by H2O2 addition and measured after 24 hrs by MTT assay (reference value: 53.8 %); assay type: functional; conditions: time 26 hrs
[8] = tested on: PC-12; experiment: Neuroprotective activity against H2O2-induced cell injury in rat PC-12 cells assessed as increase in cell viability causing decrease in LDH content preincubated for 2 hrs followed by H2O2 addition and measured after 24 hrs by LDH assay; assay type: functional, cell-based; conditions: dose 5-10 µM, time 26.0 hrs
[9] = organism: Danio rerio; experiment: Antialzheimer activity against 3 dpf zebrafish model of AlCl3-induced AD assessed as efficacy on speed change at 8 uM relative to control; assay type: functional
[10] = organism: Danio rerio; experiment: Antialzheimer activity against 3 dpf zebrafish model of AlCl3-induced AD assessed as change in motility distance at 8 uM (reference value: 5204 mm); assay type: functional
[11] = biological target: T2, Cholinesterase; experiment: Pseudo-irreversible inhibition of human serum BChE assessed as enzyme recovery activity at IC50 using undiluted compound relative to control; assay type: cell-free; parameters: scale not given: the % may be the effect or the level left
[12] = biological target: T2, Cholinesterase; experiment: Pseudo-irreversible inhibition of human serum BChE assessed as enzyme recovery activity at 0.1 times IC50 using diluted compound relative to control; assay type: cell-free; parameters: scale not given: the % may be the effect or the level left
[13] = organism: Danio rerio; experiment: Antialzheimer activity against 3 dpf zebrafish model of AlCl3-induced AD assessed as efficacy on motility distance at 8 uM relative to control; assay type: functional
[14] = organism: Danio rerio; experiment: Antialzheimer activity against 3 dpf zebrafish model of AlCl3-induced AD assessed as motility by measuring change in speed at 8 uM (reference value: 1.05 mm/s); assay type: functional
[15] = Cytotoxicity against human L02 cells assessed as cell viability at 6.25 uM measured after 72 hrs by MTT assay relative to control; assay type: cell-based; conditions: read-out: Activity
[16] = tested on: L02; experiment: Hepatoprotective activity H2O2-induced cell injury in human L02 cells assessed as cell viability at 10 uM measured after 48 hrs by MTT assay (reference value: 56.89 %); assay type: functional; conditions: read-out: Activity
[17] = Metal chelating activity assessed as Cu2+-compound complex formation at 37.5 uM in presence of 37.5 uM CuCl2 by UV-Vis spectroscopic analysis
[18] = Drug metabolism in human liver microsomes assessed as metabolite formation by UPLC-MS/MS analysis; assay type: ADME, Microsome
[19] = Cytotoxicity against human L02 cells assessed as cell viability at 50 uM measured after 72 hrs by MTT assay relative to control; assay type: cell-based; conditions: read-out: Activity
[20] = Metal chelating activity assessed as Zn2+-compound complex formation at 37.5 uM in presence of 37.5 uM ZnCl2 by UV-Vis spectrophotometric analysis
[21] = Drug metabolism in rat intestine assessed as metabolite formation by UPLC-MS/MS analysis; assay type: ADME, tissue-based
[22] = biological target: Amyloid-beta precursor protein (Homo sapiens) (UniProt P05067); experiment: Disaggregation of self-induced amyloid beta (1 to 42) (unknown origin) preformed fibrils at 25 uM measured after 48 hrs by TEM analysis
[23] = tested on: PC-12; experiment: Cytotoxicity against rat PC-12 cells assessed as reduction in cell viability <= 100 uM measured after 48 hrs by MTT assay; assay type: cell-based; conditions: pc-12, 48 h
[24] = Metal chelating activity assessed as Al3+-compound complex formation at 37.5 uM in presence of 37.5 uM AlCl3 by UV-Vis spectrophotometric analysis
[25] = Permeability of the compound in PBS/EtOH (70:30) at 100 ug/ml by PAMPA-BBB assay; assay type: ADME; conditions: dose 100 µg/ml, read-out: permeability
[26] = Cytotoxicity against human L02 cells assessed as cell viability at 12.5 uM measured after 72 hrs by MTT assay relative to control; assay type: cell-based; conditions: read-out: Activity
[27] = Metal chelating activity assessed as Fe2+-compound complex formation at 37.5 uM in presence of 37.5 uM FeSO4 by UV-Vis spectrophotometric analysis
[28] = Drug metabolism in rat liver microsomes assessed as metabolite formation by UPLC-MS/MS analysis; assay type: ADME, Microsome
[29] = Cytotoxicity against human L02 cells assessed as cell viability at 25 uM measured after 72 hrs by MTT assay relative to control; assay type: cell-based; conditions: read-out: Activity
[30] = biological target: Amyloid-beta precursor protein (Homo sapiens) (UniProt P05067); experiment: Disaggregation of self-induced amyloid beta (1 to 42) (unknown origin) preformed fibrils at 25 uM by ThT fluorescence assay relative to control
[31] = biological target: Amyloid-beta precursor protein (Homo sapiens) (UniProt P05067); experiment: Inhibition of self-induced amyloid beta (1 to 42) (unknown origin) aggregation at 25 uM measured after 24 hrs by TEM analysis
[32] = biological target: T3, Acetylcholinesterase; experiment: Pseudo-irreversible inhibition of human erythrocytes AChE assessed as enzyme recovery activity at 0.1 times IC50 measured at 120 mins using diluted compound relative to control; assay type: tissue-based; parameters: scale not given: the % may be the effect or the level left; conditions: Erythrocyte
[33] = biological target: T2, Cholinesterase; experiment: Pseudo-irreversible inhibition of human serum BChE assessed as enzyme recovery activity at 0.1 times IC50 measured immediately using diluted compound; assay type: cell-free; parameters: scale not given: the % may be the effect or the level left
[34] = biological target: T2, Cholinesterase; experiment: Pseudo-irreversible inhibition of human serum BChE assessed as enzyme recovery activity at IC50 using diluted compound relative to control; assay type: cell-free; parameters: scale not given: the % may be the effect or the level left
[35] = tested on: Mus musculus; experiment: Reversal of scopolamine-induced Kunming mouse model of memory impairment assessed as spontaneous alteration at 6 mg/kg by Y-maze test (reference value: 41.6 %); assay type: functional
[36] = tested on: Mus musculus; experiment: Cognitive enhancing effect in scopolamine-induced Kunming mouse model of memory impairment assessed as effect on total arm entries at 6 mg/kg by Y-maze test; assay type: functional, organism-based
[37] = Inhibition of copper-induced amyloid beta (1 to 42) (unknown origin) aggregation measured after 24 hrs by TEM analysis
[38] = Inhibition of copper-induced amyloid beta (1 to 42) (unknown origin) aggregation at 25 uM by ThT fluorescence assay relative to control
[39] = Disaggregation of Copper-induced amyloid beta (1 to 42) (unknown origin) preformed fibrils at 25 uM by ThT fluorescence assay relative to control
[40] = Disaggregation of Copper-induced amyloid beta (1 to 42) (unknown origin) preformed fibrils measured after 48 hrs by TEM analysis

Sequence of Amyloid-beta precursor protein (Homo sapiens) (P05067 whole entry): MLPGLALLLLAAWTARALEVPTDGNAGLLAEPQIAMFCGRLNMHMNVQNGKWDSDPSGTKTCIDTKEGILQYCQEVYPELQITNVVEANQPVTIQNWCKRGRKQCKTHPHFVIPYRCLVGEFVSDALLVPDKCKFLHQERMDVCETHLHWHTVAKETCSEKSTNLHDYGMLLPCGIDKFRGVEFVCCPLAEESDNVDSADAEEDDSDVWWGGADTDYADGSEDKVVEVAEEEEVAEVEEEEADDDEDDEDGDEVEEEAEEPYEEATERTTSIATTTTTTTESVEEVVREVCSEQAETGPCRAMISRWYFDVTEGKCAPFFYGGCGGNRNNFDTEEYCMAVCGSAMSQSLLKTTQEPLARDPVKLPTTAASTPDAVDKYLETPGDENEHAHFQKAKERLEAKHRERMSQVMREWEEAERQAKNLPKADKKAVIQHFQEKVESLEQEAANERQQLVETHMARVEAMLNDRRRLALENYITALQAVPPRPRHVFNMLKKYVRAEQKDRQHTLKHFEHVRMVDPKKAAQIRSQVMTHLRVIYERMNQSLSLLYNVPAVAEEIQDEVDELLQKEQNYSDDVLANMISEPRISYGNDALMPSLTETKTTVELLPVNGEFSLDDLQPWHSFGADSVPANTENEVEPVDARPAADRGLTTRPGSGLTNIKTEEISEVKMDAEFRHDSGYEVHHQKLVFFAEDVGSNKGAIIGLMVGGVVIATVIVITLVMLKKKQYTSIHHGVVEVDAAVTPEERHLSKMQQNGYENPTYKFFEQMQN
Sequence of Butyrylcholinesterase (Q9JKC1 whole entry): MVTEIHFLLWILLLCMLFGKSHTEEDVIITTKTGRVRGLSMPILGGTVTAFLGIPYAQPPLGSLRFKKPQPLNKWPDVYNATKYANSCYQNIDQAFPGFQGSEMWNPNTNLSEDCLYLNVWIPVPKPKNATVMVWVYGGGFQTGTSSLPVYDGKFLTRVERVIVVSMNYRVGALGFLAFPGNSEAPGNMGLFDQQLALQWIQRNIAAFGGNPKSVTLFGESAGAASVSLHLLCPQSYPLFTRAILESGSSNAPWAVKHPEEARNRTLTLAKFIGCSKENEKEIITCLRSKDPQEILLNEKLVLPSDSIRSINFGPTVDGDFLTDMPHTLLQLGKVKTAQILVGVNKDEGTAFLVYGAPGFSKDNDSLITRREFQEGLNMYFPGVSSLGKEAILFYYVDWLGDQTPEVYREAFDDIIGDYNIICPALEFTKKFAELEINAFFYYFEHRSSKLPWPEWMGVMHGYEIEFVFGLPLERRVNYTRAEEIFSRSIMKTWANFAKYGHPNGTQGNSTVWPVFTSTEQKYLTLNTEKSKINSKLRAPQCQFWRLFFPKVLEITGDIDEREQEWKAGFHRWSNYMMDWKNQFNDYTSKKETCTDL
T2 sequence (P06276 whole entry): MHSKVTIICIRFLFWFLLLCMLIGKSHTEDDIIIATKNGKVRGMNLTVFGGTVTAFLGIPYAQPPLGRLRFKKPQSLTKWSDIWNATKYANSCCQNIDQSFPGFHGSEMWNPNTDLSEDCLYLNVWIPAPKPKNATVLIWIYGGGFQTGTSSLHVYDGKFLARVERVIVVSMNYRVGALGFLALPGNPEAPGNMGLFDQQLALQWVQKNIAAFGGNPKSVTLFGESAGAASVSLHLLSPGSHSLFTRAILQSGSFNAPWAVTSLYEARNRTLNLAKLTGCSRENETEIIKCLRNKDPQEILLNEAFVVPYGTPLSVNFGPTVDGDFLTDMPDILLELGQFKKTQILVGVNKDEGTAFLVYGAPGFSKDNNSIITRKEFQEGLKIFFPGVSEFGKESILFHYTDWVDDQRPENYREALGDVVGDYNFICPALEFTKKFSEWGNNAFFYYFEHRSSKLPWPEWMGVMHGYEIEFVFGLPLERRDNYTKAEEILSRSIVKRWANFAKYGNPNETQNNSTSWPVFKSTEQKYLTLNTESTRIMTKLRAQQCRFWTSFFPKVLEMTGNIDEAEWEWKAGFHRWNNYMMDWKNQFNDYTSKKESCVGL
T3 sequence (P22303 whole entry): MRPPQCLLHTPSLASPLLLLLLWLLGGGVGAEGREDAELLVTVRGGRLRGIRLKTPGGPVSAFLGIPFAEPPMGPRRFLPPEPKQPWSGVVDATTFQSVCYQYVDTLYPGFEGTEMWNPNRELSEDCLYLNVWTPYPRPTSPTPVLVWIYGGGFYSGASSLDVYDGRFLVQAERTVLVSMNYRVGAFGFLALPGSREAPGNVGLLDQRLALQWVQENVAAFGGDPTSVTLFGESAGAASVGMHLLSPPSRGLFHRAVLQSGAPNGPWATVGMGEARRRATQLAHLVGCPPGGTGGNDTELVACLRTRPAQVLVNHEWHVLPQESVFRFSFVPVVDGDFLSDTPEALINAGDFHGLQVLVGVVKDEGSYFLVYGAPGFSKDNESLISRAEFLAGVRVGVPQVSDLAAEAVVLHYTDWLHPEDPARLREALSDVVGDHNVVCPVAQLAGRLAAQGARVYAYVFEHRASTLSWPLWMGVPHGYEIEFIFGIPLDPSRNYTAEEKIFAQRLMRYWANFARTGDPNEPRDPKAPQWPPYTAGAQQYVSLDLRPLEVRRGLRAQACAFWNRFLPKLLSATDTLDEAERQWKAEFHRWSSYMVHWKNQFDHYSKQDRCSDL

SMILES | Activity [1] [equiv] | IC50 [2] [µM] | IC50 [3] [µM] | inhibition [4] [%] | other results
O=C(Oc1ccc(-c2cc(=O)c3c(OC(=O)N4CCOCC4)cc(OC(=O)N4CCOCC4)cc3o2)cc1)N1CCOCC1 | 0.2 | 23.8 | 10.2 | 31.2 | 
CON(C)C(=O)Oc1ccc(-c2cc(=O)c3c(O)cc(OC(=O)N(C)OC)cc3o2)cc1 | 1.1 | 17.2 | 6.8 | 76.8 | IC50 [5]: 22.6 µM; IC50 [6]: 10.2 µM
Cc1c(C)c2c(c(C)c1O)CCC(C)(C(=O)O)O2 (stereo not given) [TROLOX] |  |  |  |  | Activity [7]: 68.8%; Activity [8]: Active
CN(C)C(=O)Oc1ccc(-c2cc(=O)c3c(OC(=O)N(C)C)cc(OC(=O)N(C)C)cc3o2)cc1 | 0.2 | 23.1 | 8.3 | 38.3 | 
CCN(CC)C(=O)Oc1ccc(-c2cc(=O)c3c(O)cc(OC(=O)N(CC)CC)cc3o2)cc1 | 1.2 | 16.4 | 7.8 | 77.8 | 
O=C(Oc1ccc(-c2cc(=O)c3c(O)cc(OC(=O)N4CCOCC4)cc3o2)cc1)N1CCOCC1 | 1.1 | 18.6 | 11.5 | 71.5 | 
CN(C)C(=O)Oc1ccc(-c2cc(=O)c3c(O)cc(OC(=O)N(C)C)cc3o2)cc1 | 1.1 | 23.7 | 9.2 | 79.2 | 
O=C(Oc1ccc(-c2cc(=O)c3c(O)cc(OC(=O)N4CCCC4)cc3o2)cc1)N1CCCC1 | 1.2 | 26.9 | 13.7 | 73.7 | 
CON(C)C(=O)Oc1ccc(-c2cc(=O)c3c(OC(=O)N(C)OC)cc(OC(=O)N(C)OC)cc3o2)cc1 | 0.2 | 18.2 | 6 | 36 | IC50 [5]: 24.3 µM; IC50 [6]: 12.7 µM
COc1cc2c(cc1OC)C(=O)C(CC1CCN(Cc3ccccc3)CC1)C2 (stereo not given) [DONEPEZIL] |  |  |  |  | Efficacy [9]: 66%; Activity [10]: 6361 mm; Activity [11]: 49.6%; Activity [12]: 60.3%; Efficacy [13]: 55%; Activity [14]: 1.91 millimeter/sec
CCN(C)C(=O)Oc1ccc(-c2cc(=O)c3c(OC(=O)N(C)CC)cc(OC(=O)N(C)CC)cc3o2)cc1 | 0.1 | 16.2 | 5.1 | 35.1 | viability at 72 h, 6.25 µM [15]: 98%; viability at 10 µM [16]: 62.7%; Activity [17]: inactive; Drug metabolism [18]: Metabolite_Detected; viability at 72 h, 50 µM [19]: 69.2%; Activity [20]: inactive; IC50 [5]: 19.5 µM; Drug metabolism [21]: Metabolite_Detected; Activity [22]: Active; Activity [23]: Non-Toxic; Activity [24]: inactive; Papp at 100 ug/ml [25]: 19.2 ×10⁻⁶ cm/s; viability at 72 h, 12.5 µM [26]: 98.5%; IC50 [6]: 9.2 µM; Activity [27]: inactive; Drug metabolism [28]: Metabolite_Detected; viability at 72 h, 25 µM [29]: 89.8%; Activity [30]: 40.6%; inhibition [31]: Active
O=c1cc(-c2ccc(O)cc2)oc2cc(O)cc(O)c12 [APIGENIN] | 5.2 | > 500 | > 500 |  | Papp at 100 ug/ml [25]: 1.68 ×10⁻⁶ cm/s
CCN(C)C(=O)Oc1cccc([C@H](C)N(C)C)c1 [RIVASTIGMINE] |  |  |  |  | Activity [32]: 81.4%; Activity [33]: 43.2%; Activity [12]: 43.2%; Activity [34]: 58.3%; Activity [35]: 64.6%; Activity [36]: inactive
O=C(Oc1ccc(-c2cc(=O)c3c(O)cc(OC(=O)N(c4ccccc4)c4ccccc4)cc3o2)cc1)N(c1ccccc1)c1ccccc1 | 1 | 37.6 | 31.9 | 70.9 | 
COc1cc(/C=C/C(=O)CC(=O)/C=C/c2ccc(O)c(OC)c2)ccc1O |  |  |  |  | inhibition [37]: Active; inhibition [38]: 53.6%; Activity [39]: 56.1%; Activity [40]: Active
